The record followed here is US7786141B2 (Vertex Pharmaceuticals Incorporated, priority 2004, dated 2010).

One test concerns the target T1, M1 muscarinic receptor (Homo sapiens, UniProt P11229).
T1 construct: expressed in transfected cells; host or cells: CHO (M1-CHO)
T1 sequence (P11229 1-460): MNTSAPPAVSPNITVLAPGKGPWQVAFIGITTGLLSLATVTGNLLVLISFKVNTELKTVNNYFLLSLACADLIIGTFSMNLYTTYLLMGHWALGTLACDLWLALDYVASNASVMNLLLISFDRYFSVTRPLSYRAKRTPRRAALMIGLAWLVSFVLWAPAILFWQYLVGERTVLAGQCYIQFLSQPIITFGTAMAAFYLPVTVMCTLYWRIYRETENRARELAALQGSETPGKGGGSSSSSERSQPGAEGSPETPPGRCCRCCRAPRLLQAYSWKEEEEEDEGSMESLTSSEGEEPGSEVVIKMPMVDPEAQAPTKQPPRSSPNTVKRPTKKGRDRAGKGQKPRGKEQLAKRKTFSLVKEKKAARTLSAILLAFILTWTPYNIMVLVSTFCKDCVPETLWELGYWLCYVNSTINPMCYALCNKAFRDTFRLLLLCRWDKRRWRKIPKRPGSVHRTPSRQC
Put plainly: Functional mobilization of intracellular calcium (FLIPR) in M1-CHO cells. Format: cell-based. Particulars: Table 4; for Emax: 100% efficacy is the maximum response obtained with the Carbachol control; for M1 Activity: M1 receptor, calcium mobilization (FLIPR). The essentials: (§1)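 CHO cells stably expressing human M1 or M4 receptor were loaded with Fluo-3 AM (or Calcium 3 dye) in Hepes-buffered saline, pH 7.4, with 1 mM probenecid, 0.5% final DMSO. Agonist mode: compound added directly; antagonist mode: 15 min preincubation before carbachol at EC80. FLIPR fluorescence recorded 60 sec.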

In a further test the target is T2, M4 muscarinic receptor (Homo sapiens, UniProt P08173).
T2 construct: expressed in transfected cells; host or cells: CHO (M4-CHO)
T2 sequence (P08173 1-479): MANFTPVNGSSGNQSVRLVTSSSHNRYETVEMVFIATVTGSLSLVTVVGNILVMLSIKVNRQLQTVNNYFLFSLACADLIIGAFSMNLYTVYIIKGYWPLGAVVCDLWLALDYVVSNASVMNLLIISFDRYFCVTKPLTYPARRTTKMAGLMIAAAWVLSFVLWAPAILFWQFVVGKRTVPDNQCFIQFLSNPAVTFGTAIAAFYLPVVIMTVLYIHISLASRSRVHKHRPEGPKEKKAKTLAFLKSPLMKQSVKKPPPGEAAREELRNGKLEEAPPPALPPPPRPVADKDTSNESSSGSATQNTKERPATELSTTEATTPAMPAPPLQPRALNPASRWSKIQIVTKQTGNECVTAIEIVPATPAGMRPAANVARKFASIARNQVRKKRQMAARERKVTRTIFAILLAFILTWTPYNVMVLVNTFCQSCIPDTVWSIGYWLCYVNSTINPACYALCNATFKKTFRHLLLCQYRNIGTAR
Put plainly: Functional mobilization of intracellular calcium (FLIPR) in M4-CHO cells. Particulars: Table 4; for Emax: 100% efficacy is the maximum response obtained with the Carbachol control; for M4 Activity: M4 receptor, calcium mobilization (FLIPR). The class given is cell-based. The method in brief:
as §1

On to `COC(=O)N1CC[C@H](CN2CCC3(CC2)CN(C(=O)N(C)C)c2ccc(F)cc23)C1` [compound 807], for which, at M1 muscarinic receptor, the maximal response (Emax) lay within 25 to 100% and the “M1 Activity” value was “xxx (activity was measured to be less than 2.0 μM)”. For the same compound, on M4 muscarinic receptor, the Emax was in the range of 25 to 100% and the “M4 Activity” value is “xxx (activity was measured to be less than 2.0 μM)”.
As for `CCOC(=O)N1CCC(N2CCC3(CC2)CN(c2ccc(F)cc2)c2ccc(F)cc23)CC1` [compound 808], at M1 muscarinic receptor, the Emax fell in the range of 25 to 100% and the “M1 Activity” value is recorded as “xxx (activity was measured to be less than 2.0 μM)”. Besides, at M4 muscarinic receptor, the maximal response (Emax) is 25 to 100% and the “M4 Activity” value is “xxx (activity was measured to be less than 2.0 μM)”.
For the compound `CCOC(=O)N1C2CCC1CC(N1CCC3(CC[C@H](NS(C)(=O)=O)c4ccccc43)CC1)C2` (stereo partly drawn) [compound 809], at M1 muscarinic receptor, the maximal effect (Emax) was in the range of 25 to 100% and the “M1 Activity” value is reported as “xxx (activity was measured to be less than 2.0 μM)”. In addition, at M4 muscarinic receptor, the Emax fell in the range of 25 to 100% and the “M4 Activity” value is on record as “xxx (activity was measured to be less than 2.0 μM)”.
Take `CCOC(=O)N1C2CCC1CC(N1CCC3(CC[C@H](NC(C)=O)c4ccccc43)CC1)C2` (stereo partly drawn) [compound 810]: on M1 muscarinic receptor, the maximal response (Emax) was 25 to 100% and the “M1 Activity” value is “xxx (activity was measured to be less than 2.0 μM)”. At M4 muscarinic receptor, the Emax was in the range of 25 to 100% and the “M4 Activity” value is “xxx (activity was measured to be less than 2.0 μM)”.
As to `CN(C)C(=O)N1CC2(CCN(C3CCN(C(=O)c4ccsc4)CC3)CC2)c2cc(F)ccc21` [compound 812], on M1 muscarinic receptor, the Emax fell in the range of 25 to 100%; the “M1 Activity” value was “xx (activity was measured to be between 2.0 μM and 5.0 μM)”. Also, on M4 muscarinic receptor, the Emax was below 25% and the “M4 Activity” value is reported as “x (activity was measured to be greater than 5.0 μM)”.
Consider `Cc1ccc2c(c1)C1(CCN(C3CC4CCC3C4)CC1)CN2C(=O)c1ccccn1` (stereo not drawn) [compound 813], for which, at M1 muscarinic receptor, the Emax was 25 to 100% and the “M1 Activity” value was “x (activity was measured to be greater than 5.0 μM)”. On M4 muscarinic receptor, the Emax was below 25% and the “M4 Activity” value is “x (activity was measured to be greater than 5.0 μM)”.
For the compound `COc1ccc(F)cc1N1CCC(N2CCC3(CC2)CN(C(=O)N(C)C)c2ccc(F)cc23)CC1` [compound 814], at M1 muscarinic receptor, the Emax lay within 25 to 100% and the “M1 Activity” value is given as “x (activity was measured to be greater than 5.0 μM)”. Besides, at M4 muscarinic receptor, the Emax lay in the range of 25 to 100%; the “M4 Activity” value is “xx (activity was measured to be between 2.0 μM and 5.0 μM)”.
`CN(C)C(=O)CN1CC2(CCN(C[C@@H]3C[C@H]4C=CC3C4)CC2)c2cc(F)ccc21` [compound 815]: at M1 muscarinic receptor, the maximum response (Emax) is 25 to 100%; the “M1 Activity” value was “xx (activity was measured to be between 2.0 μM and 5.0 μM)”. Moreover, at M4 muscarinic receptor, the Emax lay within 25 to 100% and the “M4 Activity” value is listed as “xxx (activity was measured to be less than 2.0 μM)”.
Consider `C#CCOC(=O)N1CC[C@@H](CN2CCC3(CC2)CN(C(C)=O)c2ccccc23)C1` [compound 816], for which, on M1 muscarinic receptor, the maximum response (Emax) is above 100% and the “M1 Activity” value was “xxx (activity was measured to be less than 2.0 μM)”. Also, on M4 muscarinic receptor, the maximal response (Emax) is above 100% and the “M4 Activity” value is recorded as “xxx (activity was measured to be less than 2.0 μM)”.
`CC1=C(CCN2CCC3(CC2)C[C@H](NC(=O)c2ccoc2)c2ccccc23)C(C)(C)CCC1` [compound 817]: on M1 muscarinic receptor, the maximal response (Emax) is below 25% and the “M1 Activity” value was “x (activity was measured to be greater than 5.0 μM)”. Further, at M4 muscarinic receptor, the Emax is below 25% and the “M4 Activity” value is listed as “x (activity was measured to be greater than 5.0 μM)”.
On to `CC(=O)N[C@H]1CC2(CCN(CC3CCN(C(=O)OC4CCC4)CC3)CC2)c2ccccc21` [compound 818], for which, on M1 muscarinic receptor, the maximal effect (Emax) is below 25% and the “M1 Activity” value is reported as “x (activity was measured to be greater than 5.0 μM)”. Further, at M4 muscarinic receptor, the maximal response (Emax) was below 25% and the “M4 Activity” value is reported as “x (activity was measured to be greater than 5.0 μM)”.
`CC(=O)N[C@H]1CCC2(CCN(CCC3CCCN(C(=O)OC(C)(C)C)C3)CC2)c2ccccc21` (stereo partly drawn) [compound 819]: at M1 muscarinic receptor, the Emax lay within 25 to 100% and the “M1 Activity” value is recorded as “xxx (activity was measured to be less than 2.0 μM)”. In addition, on M4 muscarinic receptor, the Emax is below 25% and the “M4 Activity” value was “x (activity was measured to be greater than 5.0 μM)”.
The like results for `CCCC#CCOC(=O)N1C2CCC1CC(N1CCC3(CC1)CN(C(C)=O)c1ccccc13)C2` (stereo not drawn) [compound 820] were, in that order, 25 to 100%, “xxx (activity was measured to be less than 2.0 μM)”, 25 to 100% and “xxx (activity was measured to be less than 2.0 μM)”.
For the compound `CC(=O)N[C@H]1CC2(CCN([C@@H]3CC4CCC3C4)C2)c2ccc(F)cc21` (stereo partly drawn) [compound 821], on M1 muscarinic receptor, the Emax lay in the range of 25 to 100% and the “M1 Activity” value was “x (activity was measured to be greater than 5.0 μM)”. At M4 muscarinic receptor, the Emax is below 25% and the “M4 Activity” value is “x (activity was measured to be greater than 5.0 μM)”.
Consider `CCc1cncc(N2CCC(N3CCC4(CC3)CN(C(C)=O)c3ccccc34)CC2)n1` [compound 822], for which, at M1 muscarinic receptor, the Emax lay in the range of 25 to 100% and the “M1 Activity” value is reported as “xxx (activity was measured to be less than 2.0 μM)”. On M4 muscarinic receptor, the Emax fell in the range of 25 to 100% and the “M4 Activity” value is given as “xxx (activity was measured to be less than 2.0 μM)”.
In the case of `CC(=O)N[C@H]1CC2(CCN(C3CCCCCC3)C2)c2ccc(F)cc21` (stereo partly drawn) [compound 823], on M1 muscarinic receptor, the maximal effect (Emax) fell in the range of 25 to 100%; the “M1 Activity” value was “xx (activity was measured to be between 2.0 μM and 5.0 μM)”. On M4 muscarinic receptor, the Emax is 25 to 100%; the “M4 Activity” value was “xx (activity was measured to be between 2.0 μM and 5.0 μM)”.
On to `CC(=O)N1CC2(CCN(C3CCN(C(=O)O[C@H]4CCOC4)CC3)CC2)c2ccccc21` [compound 824], for which, on M1 muscarinic receptor, the Emax was in the range of 25 to 100% and the “M1 Activity” value is reported as “x (activity was measured to be greater than 5.0 μM)”. Besides, at M4 muscarinic receptor, the Emax was below 25% and the “M4 Activity” value is “x (activity was measured to be greater than 5.0 μM)”.
Regarding `CCC#CCOC(=O)N1CCC(N2CCC3(CC2)CN(C(C)=O)c2cccc(C)c23)CC1` [compound 825], on M1 muscarinic receptor, the Emax is 25 to 100% and the “M1 Activity” value is “xxx (activity was measured to be less than 2.0 μM)”. Moreover, at M4 muscarinic receptor, the Emax was below 25% and the “M4 Activity” value is on record as “x (activity was measured to be greater than 5.0 μM)”.
The like results for `O=C1CC2(CCN(CC3CC4C=CC3C4)CC2)c2cc(Cl)ccc21` (stereo not drawn) [compound 826] were, in that order, 25 to 100%, “xxx (activity was measured to be less than 2.0 μM)”, 25 to 100% and “xxx (activity was measured to be less than 2.0 μM)”.
The like results for `CCOC(=O)N1C2CCC1CC(N1CCC3(CC1)CN(C(C)=O)c1c(C)cc(C)cc13)C2` (stereo not drawn) [compound 827] were, in that order, 25 to 100%, “xxx (activity was measured to be less than 2.0 μM)”, 25 to 100% and “xxx (activity was measured to be less than 2.0 μM)”.
Taken in the same sequence, the figures for `CC(=O)NC1CCC2(CCN(CCC3CCCN(C(=O)C(C)(C)C)C3)CC2)c2ccccc21` (stereo not drawn) [compound 828] were 25 to 100%, “xxx (activity was measured to be less than 2.0 μM)”, below 25% and “x (activity was measured to be greater than 5.0 μM)”.
